Source: the supplement of paper PMC6045584
± gives the standard deviation of the averaged measurements.

Assays:
YM155 = compound: COCC[n+]1c2c(n(Cc3cnccn3)c1C)C(=O)c1ccccc1C2=O [YM155]; assay: surviving fraction relative to DMSO-only wells; higher = less growth inhibition; conditions: exposure time: 5 days
Method in brief: (§1)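 For each tumour cell line, log-phase cells were put into 384-well plates at 250–500 cells per well, then after 24 hours exposed continuously for five days to inhibitors at 0.5, 1, 5, 10, 50, 100, 500 and 1000 nM. Viability was assessed by CellTiter-Glo luminescence, with surviving fraction expressed relative to the median of DMSO-only wells. Lines were screened three times and retained only if replicate Pearson r exceeded 0.7 and median Z' exceeded 0.3.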

OSI-906 = compound: C[C@]1(O)C[C@@H](c2nc(-c3ccc4ccc(-c5ccccc5)nc4c3)c3c(N)nccn32)C1 [OSI-906]; assay: as above; conditions: exposure time: 5 days
Method in brief: as §1

Test System	surviving fraction (YM155; 0.5 nM)	surviving fraction (YM155; 1 nM)	surviving fraction (YM155; 5 nM)	surviving fraction (YM155; 10 nM)	surviving fraction (YM155; 50 nM)	surviving fraction (YM155; 100 nM)	surviving fraction (YM155; 500 nM)	surviving fraction (YM155; 1000 nM)	surviving fraction (OSI-906; 0.5 nM)	surviving fraction (OSI-906; 1 nM)	surviving fraction (OSI-906; 5 nM)	surviving fraction (OSI-906; 10 nM)	surviving fraction (OSI-906; 50 nM)	surviving fraction (OSI-906; 100 nM)	surviving fraction (OSI-906; 500 nM)	surviving fraction (OSI-906; 1000 nM)
SJSA1 BONE	1 ± 0.059	1.6 ± 0.045	1.46 ± 0.018	1.59 ± 0.028	1.7 ± 0.11	1.7 ± 0.074	1.6 ± 0.15	1.53 ± 0.16	1.23 ± 0.051	1.22 ± 0.075	1.17 ± 0.2	1.21 ± 0.11	0.917 ± 0.21	1.62 ± 0.052	0.785 ± 0.31	0.388 ± 0.031
SKBR3 BREAST	0.89 ± 0.03	0.849 ± 0.055	0.825 ± 0.024	0.53 ± 0.071	0.0403 ± 0.012	0.0253 ± 0.0067	0.0247 ± 0.0074	0.0243 ± 0.0058	0.752 ± 0.012	0.765 ± 0.027	0.814 ± 0.11	0.841 ± 0.0095	1.05 ± 0.11	0.871 ± 0.11	0.786 ± 0.07	0.681 ± 0.062
SNU475 LIVER	0.815 ± 0.055	0.991 ± 0.048	0.97 ± 0.044	0.944 ± 0.03	0.372 ± 0.035	0.123 ± 0.012	0.0263 ± 0.00058	0.0303 ± 0.0015	0.89 ± 0.023	0.887 ± 0.037	0.887 ± 0.012	0.869 ± 0.054	0.942 ± 0.037	0.921 ± 0.013	0.944 ± 0.011	0.963 ± 0.015
SUM44 BREAST	1.05 ± 0.16	1.15 ± 0.24	1.1 ± 0.2	1 ± 0.27	0.358 ± 0.12	0.225 ± 0.055	0.121 ± 0.049	0.125 ± 0.064	0.844 ± 0.044	0.878 ± 0.1	0.948 ± 0.047	0.8813 ± 0.0072	1.01 ± 0.17	0.965 ± 0.14	0.887 ± 0.18	0.862 ± 0.13
SUM149 BREAST	0.87 ± 0.17	1.07 ± 0.061	0.81 ± 0.064	0.445 ± 0.093	0.044 ± 0.001	0.0257 ± 0.0035	0.0203 ± 0.0032	0.023 ± 0.0036	0.923 ± 0.08	0.951 ± 0.079	0.839 ± 0.035	0.79 ± 0.035	0.827 ± 0.2	0.782 ± 0.082	0.581 ± 0.078	0.553 ± 0.034
SUM149.B1*.S BREAST	0.847 ± 0.051	1.02 ± 0.068	0.903 ± 0.068	0.583 ± 0.058	0.0738 ± 0.0063	0.0278 ± 0.0019	0.0225 ± 0.00087	0.0277 ± 0.0011	0.935 ± 0.025	0.927 ± 0.032	0.92 ± 0.041	0.926 ± 0.025	0.974 ± 0.037	0.947 ± 0.004	0.943 ± 0.032	0.888 ± 0.057
SUM159 BREAST	0.994 ± 0.042	1.02 ± 0.032	0.536 ± 0.072	0.537 ± 0.057	0.069 ± 0.0098	0.0383 ± 0.0015	0.0217 ± 0.00058	0.0273 ± 0.00058	0.9647 ± 0.0076	0.948 ± 0.021	0.964 ± 0.021	0.944 ± 0.036	0.977 ± 0.013	0.95 ± 0.021	0.953 ± 0.012	0.927 ± 0.016
SYO1 SYNOVIAL	0.847 ± 0.01	0.967 ± 0.035	0.761 ± 0.03	0.514 ± 0.012	0.0558 ± 0.0015	0.0337 ± 0.0012	0.0242 ± 0.00051	0.0279 ± 0.0021	0.795 ± 0.048	0.814 ± 0.044	0.832 ± 0.023	0.824 ± 0.058	0.838 ± 0.055	0.897 ± 0.033	0.897 ± 0.034	0.873 ± 0.016
T47D BREAST	0.959 ± 0.013	0.983 ± 0.027	0.917 ± 0.035	0.763 ± 0.0085	0.212 ± 0.01	0.131 ± 0.01	0.0481 ± 0.0042	0.0483 ± 0.0017	0.9222 ± 0.0086	0.933 ± 0.038	0.9888 ± 0.0092	0.917 ± 0.02	0.982 ± 0.058	0.954 ± 0.028	0.868 ± 0.018	0.85 ± 0.018
U2OS BONE	1.02 ± 0.026	1.005 ± 0.0056	0.616 ± 0.036	0.304 ± 0.043	0.033 ± 0.001	0.023	0.021	0.0247 ± 0.00058	0.979 ± 0.038	0.949 ± 0.031	0.958 ± 0.013	0.939 ± 0.021	0.967 ± 0.038	0.914 ± 0.026	0.872 ± 0.026	0.863 ± 0.026
VCAP PROSTATE	0.826 ± 0.049	0.9053 ± 0.0074	0.34 ± 0.025	0.286 ± 0.051	0.0533 ± 0.027	0.035 ± 0.007	0.0293 ± 0.0067	0.0617 ± 0.03	0.908 ± 0.023	0.867 ± 0.039	0.962 ± 0.028	0.999 ± 0.14	0.942 ± 0.16	0.83 ± 0.064	0.399 ± 0.046	0.188 ± 0.029
VP229 BREAST	1.04 ± 0.023	1.03 ± 0.18	0.903 ± 0.17	0.874 ± 0.081	0.265 ± 0.085	0.137 ± 0.0015	0.046 ± 0.01	0.042 ± 0.007	0.856 ± 0.095	0.825 ± 0.078	0.874 ± 0.039	0.9 ± 0.038	0.925 ± 0.1	0.867 ± 0.048	0.767 ± 0.14	0.665 ± 0.11
YAMATO SYNOVIAL	0.656 ± 0.066	0.874 ± 0.067	0.39 ± 0.039	0.29 ± 0.027	0.229 ± 0.014	0.206 ± 0.0017	0.191 ± 0.015	0.267 ± 0.016	0.866 ± 0.13	0.936 ± 0.04	0.995 ± 0.069	0.986 ± 0.082	1.36 ± 0.22	1.46 ± 0.13	1.17 ± 0.21	1.12 ± 0.077
ZR751 BREAST	0.835 ± 0.1	0.95 ± 0.085	0.559 ± 0.083	0.411 ± 0.07	0.128 ± 0.017	0.0917 ± 0.0067	0.0307 ± 0.0055	0.0287 ± 0.0031	0.893 ± 0.058	0.857 ± 0.08	0.879 ± 0.1	0.847 ± 0.069	0.819 ± 0.091	0.795 ± 0.076	0.634 ± 0.08	0.462 ± 0.022
